The source of these data is patent publication US8748088B2, “Methods of monitoring treatment effectiveness in HIV-infected patients receiveing intensified HAART regimens by measuring episomal 2-LTR circles” (University of Massachusetts, priority 2009, dated 2014).

One experiment deals with HIV-1 2-LTR circles. As to the kind of experiment: Real-time PCR quantification of episomal HIV-1 DNA (2-LTR circles) in PBMCs of HAART-suppressed patients intensified with raltegravir. The format is in vivo. The source says:
(§1) A total of 69 patients with undetectable plasma viremia (viral load <50 HIV-1 RNA copies/ml) for at least one year were included in this study. All patients were on a suppressive HAART regimen that included 2 nucleoside reverse transcriptase inhibitors, and either a protease inhibitor or a non-nucleoside reverse transcriptase inhibitor. A total of 45 patients were randomized to intensify their HAART with the integrase inhibitor raltegravir for 12 weeks, and 24 patients were included as a control arm. One patient in the control group was lost to follow-up before study initiation. […]
The samples included in this study were drawn from HIV-1 infected patients who were longitudinally monitored for up to 12 weeks. […]
In the formation of 2-LTR circles, U3 and U5 sequences within the 5′ and 3′ LTRs ligate to form a unique U3-U5 circle junction that is not represented in other forms of viral cDNA (FIG. 1A). Therefore, 2-LTR circles were specifically measured by real-time PCR with primers flanking the 2-LTR circle junction. […]
Real-time PCR-based quantification of HIV-1 2-LTR circles was performed as follows. […] A single-step, real-time PCR was used to quantify 2-LTR circles in a 50 ul PCR reaction mix containing 25 ul of TaqMan® Universal PCR Master Mix (Applied Biosystems), 20 ul of extrachromosomal HIV-1 DNA and primers and probe that span the 2-LTR circle junction. […]
A general note: Quantitative PCR measures a nucleic acid by following its amplification.

Experiment [1] deals with memory CD4+ and activated CD8+ T cells. As to the kind of experiment: Flow cytometry analysis of lymphocyte subsets and immune activation in fresh blood. The format is in vivo, HIV-1 infected patients. The method, then: Analysis of lymphocyte subsets and immune activation was performed as follows. A total of 52 patients, 34 in the intensification group and 18 patients in the control group, had fresh blood samples available for flow cytometry analysis through the study period. Different combinations of antibodies were used to characterize different lymphocyte subsets: combination 1 was designed to evaluate naïve/memory subsets and contained CD45RA-FITC, CD31-PE, CD38-PerCP, CD3-APC-Cy7, CD4-APC and CD8-PE-Cy7; combination 2 was designed to evaluate the activation of CD8 T cells and contained HLA-DR-FITC, PD-1-PE, CD38-PerCP, CD45RO-APC, CD3-APC-Cy7 and CD8-PE-Cy7. Controls with combinations of CD3-APC-Cy7, CD4-APC and CD8-PE-Cy7 antibodies were performed for all samples. All antibodies were obtained from Becton Dickinson. Briefly, 20 ul of fresh whole blood was incubated with antibodies for 15 min at room temperature with the different antibody combinations in V-bottom 96-well plates. Red cells were lysed using the BD FACs lysing solution (Becton Dickinson), washed once with PBS and resuspended in PBS containing 1% formaldehyde. Acquisition of flow cytometry data was performed on an LSRII flow cytometer (Becton Dickinson) coupled with a HTS loader. At least 30,000 lymphocytes were collected for each sample. Analyses were performed with FlowJo software (Tree Star Inc.).
(§2) Statistical analysis for the above-described experiments was performed as follows. […] In each group longitudinal changes of total and integrated HIV-1 and immune activation parameters were assessed through the signed rank test (paired test) comparing weeks 0 and 12, or weeks 0 and 24 respectively. Differences in proportions between groups were analyzed through the Pearson's chi square, considering the continuity correction or the Fisher's exact test, as appropriate. Within the intensified arm, differences in 2-LTR circles at weeks 2 and 4 compared to baseline were analyzed using Peto-Prentice-Wilcoxon test. […]
A general note: In flow cytometry, cells or beads pass a laser one at a time.

In another experiment the test system is integrated HIV-1 DNA. As to the kind of experiment: Two-step Alu-LTR real-time PCR quantification of integrated HIV-1 DNA in PBMCs of intensified patients. The format is in vivo. The note with it: for levels of integrated HIV-1 DNA: throughout the 12 weeks of intensification, p=0.768 signed rank test.
Text: A total of 69 patients with undetectable plasma viremia (viral load <50 HIV-1 RNA copies/ml) for at least one year were included in this study. All patients were on a suppressive HAART regimen that included 2 nucleoside reverse transcriptase inhibitors, and either a protease inhibitor or a non-nucleoside reverse transcriptase inhibitor. A total of 45 patients were randomized to intensify their HAART with the integrase inhibitor raltegravir for 12 weeks, and 24 patients were included as a control arm. One patient in the control group was lost to follow-up before study initiation. A second patient also in this group, who had two consecutive viral load measurements at weeks 12 and 24 (90 and 63 HIV-1 copies/mL respectively), was excluded for further analysis.
HIV-1 DNA purification was isolated as previously described (Hunt et al., J Infect Dis 187, 1534-1543 (2003)) with some modifications. […]
Real-time PCR-based quantification of integrated HIV-1 DNA was performed as follows. […] A two-step real-time PCR was used to quantitate integrated HIV-1 DNA using Alu-LTR primers as has previously been described (Brussel and Sonigo, J Virol 77, 10119-10124 (2003)). […] The fluorescence taqman probe was 5′[…] […]
Amplification and calculation of copy number was determined as for 2-LTR DNA. […] Integrated proviral DNA was measured using LTR-Alu primers. […]
as §2

The test system of another experiment is total HIV-1 DNA. As to the kind of experiment: Real-time PCR quantification of total HIV-1 DNA in PBMCs of intensified patients. The format is in vivo. The conditions noted are these: throughout the 12 weeks of intensification, p=0.342 signed rank test.
Text: as §1
Total viral DNA forms (comprising unintegrated and integrated viral cDNA) were assayed using internal LTR primers (FIG. 2). […] Real-time PCR-based quantification of total HIV-1 DNA was performed as follows. […] A single-step real-time PCR was used to quantify total HIV-1 DNA in a 50 ul PCR reaction mix containing 25 ul of TaqMan® Universal PCR Master Mix (Applied Biosystems), 20 ul of chromosomal HIV-1 DNA and primers and probe that anneal in the 5′ and 3′ end of the R and U5 region of the LTR respectively, as has previously been described (Brussel and Sonigo, J Virol 77, 10119-10124 (2003)) using a forward primer; 5′ GG CTA ACT AGG GAA CCC ACT G 3′ (SEQ ID NO:4) and a reverse primer; 5′ GCTAGAGATTTTCCACACTGACTAA 3′ (SEQ ID NO:5). […] Amplification and calculation of copy number was determined as for 2-LTR DNA. […]

The mark [2] stands for this setting: raltegravir-intensified group as a whole, throughout the study period (weeks 0-24).

In the case of `Cc1nnc(C(=O)NC(C)(C)c2nc(C(=O)NCc3ccc(F)cc3)c(O)c(=O)n2C)o1` [raltegravir], the “patients with detectable 2-LTR circles (active replication revealed)” value in the experiment on HIV-1 2-LTR circles (HAART intensified with raltegravir for 12 weeks, n=45, any time point during the study, 13/45, control 0/22, p=0.003) is reported as 29%. Moreover, in the experiment on HIV-1 2-LTR circles (intensification group, weeks 2 and 4 vs baseline (p=0.036 and p=0.023), subsequent decrease afterwards), the “change in 2-LTR circles compared to baseline” value was “significant and transient increase in 2-LTR circles”. Moreover, the immune activation entry in experiment [1] (patients in which raltegravir impacted active replication (2-LTR+ subgroup, n=13)) is “normalization of immune activation”. Besides, the “activated CD8+ T cells” value in experiment [1] (setting [2]) is reported as “no major changes”. The “memory CD4+ T cells (CD4+CD45RA-)” value in experiment [1] (setting [2]) was “no major changes”. For the same molecule, the “patients from whom integrated HIV-1 DNA was amplified” value with integrated HIV-1 DNA (intensified patients 39/45, any time point after initiation of the study) is 87%. For the same molecule, the “levels of integrated HIV-1 DNA” value is “remained stable” in the experiment with integrated HIV-1 DNA and “did not cause significant fluctuations” in the experiment with integrated HIV-1 DNA (listed as Raltegravir). Besides, the “levels of total HIV-1 DNA” value with total HIV-1 DNA is “remained stable”; in the experiment on total HIV-1 DNA (listed as Raltegravir), “did not cause significant fluctuations”.
